Read-outs that look alike come from different tables or passages of the source.
Columns and labels:
Experiment in all cases: biochemical
Set-up in all cases: KINOMEscan active site-directed competition binding assay (DiscoveRx), 456 kinases, per cent of control at 300 nM
Conditions in all cases: read-out: Percent of Control (%)
[1] = biological target: T1, ABL1(F317L)-phosphorylated (Homo sapiens, UniProt P00519, F317L)
T1 construct: phosphorylated
Procedure, shortened: (§1)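 Values reflect active-site competition binding from a screen of 456 kinases, with test compounds at a fixed 300 nmol/L.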

BIKE = biological target: T2, BIKE (Homo sapiens, UniProt Q9NSY1)
T2 construct: gene BMP2K
Procedure, shortened: as §1

BRAF(V600E) = BRAF(V600E) (Homo sapiens, UniProt P15056, V600E)
Procedure, shortened: as §1

CAMK2G = CAMK2G (Homo sapiens, UniProt Q13555)
Procedure, shortened: as §1

CSNK1G2 = CSNK1G2 (Homo sapiens, UniProt P78368)
Procedure, shortened: as §1

DAPK2 = DAPK2 (Homo sapiens, UniProt Q9UIK4)
Procedure, shortened: as §1

DCAMKL2 = biological target: T3, DCAMKL2 (Homo sapiens, UniProt Q8N568)
T3 construct: gene DCLK2
Procedure, shortened: as §1

DRAK1 = biological target: T4, DRAK1 (Homo sapiens, UniProt Q9UEE5)
T4 construct: gene STK17A
Procedure, shortened: as §1

EGFR(L858R,T790M) = EGFR(L858R,T790M) (Homo sapiens, UniProt P00533, L858R/T790M)
Procedure, shortened: as §1

EPHB6 = EPHB6 (Homo sapiens, UniProt O15197)
Procedure, shortened: as §1

GRK4 = GRK4 (Homo sapiens, UniProt P32298)
Procedure, shortened: as §1

HIPK4 = HIPK4 (Homo sapiens, UniProt Q8NE63)
Procedure, shortened: as §1

[2] = biological target: T5, JAK1(JH1domain-catalytic) (Homo sapiens, UniProt P23458)
T5 construct: JH1domain-catalytic
Procedure, shortened: as §1

LTK = LTK (Homo sapiens, UniProt P29376)
Procedure, shortened: as §1

MARK4 = MARK4 (Homo sapiens, UniProt Q96L34)
Procedure, shortened: as §1

MLCK = biological target: T6, MLCK (Homo sapiens, UniProt Q32MK0)
T6 construct: gene MYLK3
Procedure, shortened: as §1

NEK4 = NEK4 (Homo sapiens, UniProt P51957)
Procedure, shortened: as §1

SIK2 = SIK2 (Homo sapiens, UniProt Q9H0K1)
Procedure, shortened: as §1

SRMS = SRMS (Homo sapiens, UniProt Q9H3Y6)
Procedure, shortened: as §1

SgK110 = biological target: T7, SgK110 (Homo sapiens, UniProt P0C264)
T7 construct: gene SBK3
Procedure, shortened: as §1

TESK1 = TESK1 (Homo sapiens, UniProt Q15569)
Procedure, shortened: as §1

ZAP70 = ZAP70 (Homo sapiens, UniProt P43403)
Procedure, shortened: as §1

T7 sequence (P0C264 whole entry): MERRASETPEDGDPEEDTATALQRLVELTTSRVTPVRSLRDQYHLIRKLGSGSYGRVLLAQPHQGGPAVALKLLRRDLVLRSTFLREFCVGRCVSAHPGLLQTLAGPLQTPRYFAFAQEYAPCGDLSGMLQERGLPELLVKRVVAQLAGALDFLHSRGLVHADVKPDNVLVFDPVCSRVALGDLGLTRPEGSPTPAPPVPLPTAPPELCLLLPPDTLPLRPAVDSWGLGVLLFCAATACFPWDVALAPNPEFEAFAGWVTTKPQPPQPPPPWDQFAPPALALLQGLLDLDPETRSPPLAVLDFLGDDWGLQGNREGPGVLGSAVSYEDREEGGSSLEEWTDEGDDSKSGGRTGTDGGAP
Sequence of HIPK4 (Q8NE63 whole entry): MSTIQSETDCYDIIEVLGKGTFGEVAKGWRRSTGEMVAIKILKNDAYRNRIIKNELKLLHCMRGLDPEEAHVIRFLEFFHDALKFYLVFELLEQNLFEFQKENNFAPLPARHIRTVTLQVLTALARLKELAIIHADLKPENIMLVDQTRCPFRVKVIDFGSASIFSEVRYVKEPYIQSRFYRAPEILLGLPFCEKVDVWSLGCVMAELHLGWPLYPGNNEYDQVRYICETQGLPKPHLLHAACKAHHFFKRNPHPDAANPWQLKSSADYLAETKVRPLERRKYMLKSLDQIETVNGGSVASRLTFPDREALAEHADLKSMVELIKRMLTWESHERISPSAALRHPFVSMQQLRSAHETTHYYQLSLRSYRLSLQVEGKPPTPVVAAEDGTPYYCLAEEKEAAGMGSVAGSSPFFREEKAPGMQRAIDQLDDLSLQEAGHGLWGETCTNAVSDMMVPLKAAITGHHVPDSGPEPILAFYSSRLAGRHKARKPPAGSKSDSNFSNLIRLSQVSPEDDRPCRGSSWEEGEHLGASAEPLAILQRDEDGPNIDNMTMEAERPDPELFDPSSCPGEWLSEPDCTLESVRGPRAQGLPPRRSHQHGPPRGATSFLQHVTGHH
Sequence of ZAP70 (P43403 whole entry): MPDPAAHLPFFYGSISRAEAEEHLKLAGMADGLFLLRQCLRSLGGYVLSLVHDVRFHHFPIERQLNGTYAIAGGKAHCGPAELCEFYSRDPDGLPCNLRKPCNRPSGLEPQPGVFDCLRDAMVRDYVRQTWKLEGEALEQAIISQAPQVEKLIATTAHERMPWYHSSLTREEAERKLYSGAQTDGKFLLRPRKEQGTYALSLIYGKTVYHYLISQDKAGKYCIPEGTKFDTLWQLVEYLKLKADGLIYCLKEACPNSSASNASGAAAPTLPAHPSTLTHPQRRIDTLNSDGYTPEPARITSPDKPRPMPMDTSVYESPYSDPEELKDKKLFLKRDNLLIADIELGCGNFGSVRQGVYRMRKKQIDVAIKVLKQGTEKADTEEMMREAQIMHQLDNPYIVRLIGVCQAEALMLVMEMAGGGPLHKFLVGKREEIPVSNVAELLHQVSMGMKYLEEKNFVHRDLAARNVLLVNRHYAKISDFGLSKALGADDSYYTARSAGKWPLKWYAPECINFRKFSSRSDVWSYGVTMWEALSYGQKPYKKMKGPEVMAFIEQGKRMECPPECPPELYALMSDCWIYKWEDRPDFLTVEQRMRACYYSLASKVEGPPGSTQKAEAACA
T6 sequence (Q32MK0 whole entry): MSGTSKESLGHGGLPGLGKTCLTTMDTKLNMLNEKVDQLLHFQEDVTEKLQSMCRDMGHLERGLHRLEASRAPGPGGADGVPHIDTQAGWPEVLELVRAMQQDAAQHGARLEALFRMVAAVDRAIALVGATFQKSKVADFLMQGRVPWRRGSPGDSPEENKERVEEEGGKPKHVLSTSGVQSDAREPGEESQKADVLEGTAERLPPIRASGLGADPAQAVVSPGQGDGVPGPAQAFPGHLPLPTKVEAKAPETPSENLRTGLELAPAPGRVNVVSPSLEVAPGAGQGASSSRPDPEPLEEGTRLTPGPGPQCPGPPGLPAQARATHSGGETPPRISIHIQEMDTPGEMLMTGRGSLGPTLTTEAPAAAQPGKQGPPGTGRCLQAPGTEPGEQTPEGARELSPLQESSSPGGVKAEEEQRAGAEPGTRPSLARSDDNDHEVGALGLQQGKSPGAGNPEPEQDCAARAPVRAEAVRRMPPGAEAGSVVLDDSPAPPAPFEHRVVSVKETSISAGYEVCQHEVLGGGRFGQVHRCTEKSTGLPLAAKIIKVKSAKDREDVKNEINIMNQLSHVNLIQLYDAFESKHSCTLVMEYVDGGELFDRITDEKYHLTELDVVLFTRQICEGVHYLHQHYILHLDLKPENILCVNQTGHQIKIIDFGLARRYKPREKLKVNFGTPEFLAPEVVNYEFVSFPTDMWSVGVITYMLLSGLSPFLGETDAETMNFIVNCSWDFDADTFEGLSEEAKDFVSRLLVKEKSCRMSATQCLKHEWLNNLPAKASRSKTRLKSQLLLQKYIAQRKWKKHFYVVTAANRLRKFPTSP
Sequence of CAMK2G (Q13555 whole entry): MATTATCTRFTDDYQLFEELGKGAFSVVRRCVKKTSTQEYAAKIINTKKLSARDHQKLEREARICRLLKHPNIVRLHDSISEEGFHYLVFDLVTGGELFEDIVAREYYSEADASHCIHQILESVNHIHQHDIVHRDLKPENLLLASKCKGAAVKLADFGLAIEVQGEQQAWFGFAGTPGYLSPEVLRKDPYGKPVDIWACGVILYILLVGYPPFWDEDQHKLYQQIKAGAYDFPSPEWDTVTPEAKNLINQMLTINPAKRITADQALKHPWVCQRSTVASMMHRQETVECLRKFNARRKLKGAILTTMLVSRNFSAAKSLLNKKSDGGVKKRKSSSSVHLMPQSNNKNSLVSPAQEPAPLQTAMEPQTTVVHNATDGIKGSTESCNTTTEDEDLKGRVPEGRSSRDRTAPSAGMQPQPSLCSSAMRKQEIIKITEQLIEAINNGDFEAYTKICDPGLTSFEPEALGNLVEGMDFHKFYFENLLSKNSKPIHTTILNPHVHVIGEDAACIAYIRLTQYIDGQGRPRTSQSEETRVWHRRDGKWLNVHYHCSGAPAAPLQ
Sequence of SIK2 (Q9H0K1 whole entry): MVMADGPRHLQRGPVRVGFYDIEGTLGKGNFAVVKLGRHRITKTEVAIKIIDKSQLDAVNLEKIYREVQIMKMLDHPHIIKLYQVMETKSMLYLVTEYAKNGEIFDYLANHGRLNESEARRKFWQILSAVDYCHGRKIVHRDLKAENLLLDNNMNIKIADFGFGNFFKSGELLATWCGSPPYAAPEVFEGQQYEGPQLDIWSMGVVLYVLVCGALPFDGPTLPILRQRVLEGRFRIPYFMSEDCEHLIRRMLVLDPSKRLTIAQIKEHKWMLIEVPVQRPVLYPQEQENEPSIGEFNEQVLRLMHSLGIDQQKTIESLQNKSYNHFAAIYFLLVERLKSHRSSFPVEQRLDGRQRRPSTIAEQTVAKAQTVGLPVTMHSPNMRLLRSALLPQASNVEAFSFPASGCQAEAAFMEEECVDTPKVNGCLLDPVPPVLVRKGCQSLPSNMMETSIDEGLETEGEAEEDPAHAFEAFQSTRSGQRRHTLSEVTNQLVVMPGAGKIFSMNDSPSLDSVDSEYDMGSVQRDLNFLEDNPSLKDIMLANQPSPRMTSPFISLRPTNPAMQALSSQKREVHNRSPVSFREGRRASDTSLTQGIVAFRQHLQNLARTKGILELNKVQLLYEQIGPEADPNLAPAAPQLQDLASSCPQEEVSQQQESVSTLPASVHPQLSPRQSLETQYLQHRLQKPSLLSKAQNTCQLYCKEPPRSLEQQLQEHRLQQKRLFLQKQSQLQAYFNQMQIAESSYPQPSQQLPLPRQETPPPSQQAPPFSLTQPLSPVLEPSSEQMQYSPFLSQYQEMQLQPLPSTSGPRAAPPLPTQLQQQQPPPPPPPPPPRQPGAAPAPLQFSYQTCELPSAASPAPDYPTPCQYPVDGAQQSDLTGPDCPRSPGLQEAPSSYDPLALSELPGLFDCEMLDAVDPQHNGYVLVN
Sequence of GRK4 (P32298 whole entry): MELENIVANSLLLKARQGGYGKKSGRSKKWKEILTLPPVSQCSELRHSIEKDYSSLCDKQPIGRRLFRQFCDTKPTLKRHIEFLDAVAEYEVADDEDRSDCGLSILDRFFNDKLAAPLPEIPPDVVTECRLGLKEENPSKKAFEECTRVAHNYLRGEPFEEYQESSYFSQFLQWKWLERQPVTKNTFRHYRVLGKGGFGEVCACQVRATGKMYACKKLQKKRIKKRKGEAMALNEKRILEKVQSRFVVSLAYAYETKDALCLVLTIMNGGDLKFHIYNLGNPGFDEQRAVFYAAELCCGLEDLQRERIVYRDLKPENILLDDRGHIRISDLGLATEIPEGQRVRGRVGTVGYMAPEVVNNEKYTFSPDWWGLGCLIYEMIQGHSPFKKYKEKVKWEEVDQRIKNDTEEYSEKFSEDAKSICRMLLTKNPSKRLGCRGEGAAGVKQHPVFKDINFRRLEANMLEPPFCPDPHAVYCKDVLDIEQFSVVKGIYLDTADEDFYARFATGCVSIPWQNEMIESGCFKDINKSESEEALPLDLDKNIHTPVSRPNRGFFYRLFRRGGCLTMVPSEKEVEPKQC
Sequence of DAPK2 (Q9UIK4 whole entry): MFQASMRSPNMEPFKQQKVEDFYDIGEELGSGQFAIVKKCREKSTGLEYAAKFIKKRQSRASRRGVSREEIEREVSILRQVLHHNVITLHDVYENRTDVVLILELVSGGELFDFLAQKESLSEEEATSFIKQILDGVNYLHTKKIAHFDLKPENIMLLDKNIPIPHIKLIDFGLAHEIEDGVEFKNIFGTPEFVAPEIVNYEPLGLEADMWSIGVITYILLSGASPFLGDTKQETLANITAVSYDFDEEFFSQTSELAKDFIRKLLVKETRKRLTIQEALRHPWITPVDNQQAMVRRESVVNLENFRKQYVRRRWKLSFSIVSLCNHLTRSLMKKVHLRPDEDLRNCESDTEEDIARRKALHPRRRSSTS

O=C(/C=C/c1cnccc1-c1ccc(F)cc1)Nc1ccc(CCc2nnco2)cc1 [T-418, (2E)-3-(4-(4-fluorophenyl)pyridin-3-yl)-N-(4-(2-(1,3,4-oxadiazol-2-yl)ethyl)phenyl)acrylamide]
remaining binding at 0.3 µM ([1]; sheet T-418): 100%
remaining binding at 0.3 µM (BIKE; sheet T-418): 97%
remaining binding at 0.3 µM (BRAF(V600E); sheet T-418): 100%
remaining binding at 0.3 µM (CAMK2G; sheet T-418): 94%
remaining binding at 0.3 µM (CSNK1G2; sheet T-418): 100%
remaining binding at 0.3 µM (DAPK2; sheet T-418): 87%
remaining binding at 0.3 µM (DCAMKL2; sheet T-418): 100%
remaining binding at 0.3 µM (DRAK1; sheet T-418): 100%
remaining binding at 0.3 µM (EGFR(L858R,T790M); sheet T-418): 98%
remaining binding at 0.3 µM (EPHB6; sheet T-418): 93%
remaining binding at 0.3 µM (GRK4; sheet T-418): 100%
remaining binding at 0.3 µM (HIPK4; sheet T-418): 84%
remaining binding at 0.3 µM ([2]; sheet T-418): 69%
remaining binding at 0.3 µM (LTK; sheet T-418): 100%
remaining binding at 0.3 µM (MARK4; sheet T-418): 98%
remaining binding at 0.3 µM (MLCK; sheet T-418): 88%
remaining binding at 0.3 µM (NEK4; sheet T-418): 100%
remaining binding at 0.3 µM (SIK2; sheet T-418): 100%
remaining binding at 0.3 µM (SRMS; sheet T-418): 100%
remaining binding at 0.3 µM (SgK110; sheet T-418): 73%
remaining binding at 0.3 µM (TESK1; sheet T-418): 99%
remaining binding at 0.3 µM (ZAP70; sheet T-418): 86%

Cc1ncccc1Oc1sc(C(N)=O)c2c1-c1c(cnn1C)CC2 [T-474, 1-methyl-8-((2-methylpyridin-3-yl)oxy)-4,5-dihydro-1H-thieno[3,4-g]indazole-6-carboxamide]
remaining binding at 0.3 µM [1]: 100%
remaining binding at 0.3 µM (BIKE): 100%
remaining binding at 0.3 µM (BRAF(V600E)): 100%
remaining binding at 0.3 µM (CAMK2G): 97%
remaining binding at 0.3 µM (CSNK1G2): 90%
remaining binding at 0.3 µM (DAPK2): 100%
remaining binding at 0.3 µM (DCAMKL2): 100%
remaining binding at 0.3 µM (DRAK1): 100%
remaining binding at 0.3 µM (EGFR(L858R,T790M)): 85%
remaining binding at 0.3 µM (EPHB6): 86%
remaining binding at 0.3 µM (GRK4): 100%
remaining binding at 0.3 µM (HIPK4): 68%
remaining binding at 0.3 µM [2]: 73%
remaining binding at 0.3 µM (LTK): 100%
remaining binding at 0.3 µM (MARK4): 83%
remaining binding at 0.3 µM (MLCK): 100%
remaining binding at 0.3 µM (NEK4): 100%
remaining binding at 0.3 µM (SIK2): 100%
remaining binding at 0.3 µM (SRMS): 100%
remaining binding at 0.3 µM (SgK110): 57%
remaining binding at 0.3 µM (TESK1): 100%
remaining binding at 0.3 µM (ZAP70): 100%

Source: PMC5862592, “CDK8/19 inhibition induces premature G1/S transition and ATR-dependent cell death in prostate cancer cells” (Oncotarget, 2018)
